# Counter-ions that a name gives are not always drawn. Like-named read-outs stand apart in the source and are kept apart here.
# Assays:
# [1] = target: T1, human JAK1 (a.a. 837-1142) (Homo sapiens, UniProt P23458); test: In vitro JAK kinase assay (HTRF, phosphorylation of biotinylated peptide), JAK1; format: biochemical; conditions: 1 mM ATP
# T1 construct: The catalytic domains of human JAK1 (a.a. 837-1142); His tag (N); made in house; host or cells: insect cells (baculovirus)
# Description: (§1) Compounds herein were tested for inhibitory activity of JAK targets according to the following in vitro assay described in Park et al., Analytical Biochemistry 1999, 269, 94-104. The catalytic domains of human JAK1 (a.a. 837-1142), Jak2 (a.a. 828-1132) and Jak3 (a.a. 781-1124) with an N-terminal His tag were expressed using baculovirus in insect cells and purified. The catalytic activity of JAK1, JAK2 or JAK3 was assayed by measuring the phosphorylation of a biotinylated peptide. The phosphorylated peptide was detected by homogenous time resolved fluorescence (HTRF). IC50s of compounds were measured for each kinase in the 40 microL reactions that contain the enzyme, ATP and 500 nM peptide in 50 mM Tris (pH 7.8) buffer with 100 mM NaCl, 5 mM DTT, and 0.1 mg/mL (0.01%) BSA. The ATP concentration in the reactions was 90 μM for Jak1, 30 μM for Jak2 and 3 μM for Jak3 for Km conditions. For the 1 mM IC50 measurements, ATP concentration in the reactions was 1 mM. Reactions were carried out at room temperature for 1 hr and then stopped with 20 μL 45 mM EDTA, 300 nM SA-APC, 6 nM Eu-Py20 in assay buffer (Perkin Elmer, Boston, Mass.). Binding to the Europium labeled antibody took place for 40 minutes and HTRF signal was measured on a Fusion plate reader (Perkin Elmer, Boston, Mass.). See Tables 1, 2, 3, and 4 for data related to compounds of the invention.
# [2] = target: T2, Jak2 (a.a. 828-1132) (Homo sapiens, UniProt O60674); test: In vitro JAK kinase assay (HTRF, phosphorylation of biotinylated peptide), JAK2; format: biochemical; conditions: 1 mM ATP
# T2 construct: Jak2 (a.a. 828-1132); His tag (N); made in house; host or cells: insect cells (baculovirus)
# Description: as §1
# [3] = Examples 12-91, read-out: JAK1 IC50 (nM) @ 1 mM ATP
# [4] = Examples 12-91, read-out: JAK2 IC50 (nM) @ 1 mM ATP
# [5] = Examples 92-162, read-out: JAK1 IC50 (nM) @ 1 mM ATP
# [6] = Examples 92-162, read-out: JAK2 IC50 (nM) @ 1 mM ATP
# T2 sequence (O60674 828-1132): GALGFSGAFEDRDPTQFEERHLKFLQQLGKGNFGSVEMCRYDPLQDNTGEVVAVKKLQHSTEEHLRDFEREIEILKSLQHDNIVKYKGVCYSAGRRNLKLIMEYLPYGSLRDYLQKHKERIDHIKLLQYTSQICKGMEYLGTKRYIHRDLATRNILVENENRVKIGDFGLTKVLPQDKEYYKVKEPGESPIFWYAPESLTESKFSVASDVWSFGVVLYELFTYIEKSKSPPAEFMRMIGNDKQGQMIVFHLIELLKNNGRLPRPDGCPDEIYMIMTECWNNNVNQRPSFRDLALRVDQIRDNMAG
# T1 sequence (P23458 849-1154): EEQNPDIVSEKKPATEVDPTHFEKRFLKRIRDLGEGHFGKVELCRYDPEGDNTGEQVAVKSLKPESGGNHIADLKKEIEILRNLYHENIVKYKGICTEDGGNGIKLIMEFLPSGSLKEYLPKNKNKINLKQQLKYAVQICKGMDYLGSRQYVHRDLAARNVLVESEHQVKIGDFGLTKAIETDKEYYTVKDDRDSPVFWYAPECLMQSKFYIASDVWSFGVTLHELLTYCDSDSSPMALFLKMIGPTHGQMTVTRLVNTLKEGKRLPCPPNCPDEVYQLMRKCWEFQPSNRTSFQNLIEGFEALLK
Molecule,"IC50 [1, 3] [nM]","IC50 [2, 4] [nM]","IC50 [1, 5] [nM]","IC50 [2, 6] [nM]",also measured
"4-(4-(2-(4-(7H-pyrrolo[2,3-d]pyrimidin-4-yl)-1H-pyrazol-1-yl)-3-cyanopropyl)piperazine-1-carbonyl)-3-hydroxybenzonitrile [Example 77]",< 10,10 to 50,,,
"Cn1ccc(S(=O)(=O)N2CCN(CC(CF)n3cc(-c4ncnc5[nH]ccc45)cn3)CC2)n1 (racemic) [Example 10, (±)-4-(1-(1-fluoro-3-(4-(1-methyl-1H-pyrazol-3-ylsulfonyl)piperazin-1-yl)propan-2-yl)-1H-pyrazol-4-yl)-7H-pyrrolo[2,3-d]pyrimidine]",,,,,"IC50 ([1]; Examples 1-11, read-out: IC50 (nM) @ 1 mM ATP JAK1): < 10 nM; IC50 ([2]; Examples 1-11, read-out: IC50 (nM) @ 1 mM ATP JAK2): > 20 nM"
"C[C@@H]1CN(C(=O)c2ccc(C#N)cc2F)CCN1CC(CC#N)n1cc(-c2ncnc3[nH]ccc23)cn1 (single isomer, unassigned) [24, R-1]",< 10,> 100,,,
"C[C@@H]1CN(C(=O)c2ccc(C#N)cc2F)CCN1CC(CC#N)n1cc(-c2ncnc3[nH]ccc23)cn1 (single isomer, unassigned) [24, R-2]",> 100,> 100,,,
"C[C@H]1CN(C(=O)c2ccc(C#N)cc2F)CCN1CC(CC#N)n1cc(-c2ncnc3[nH]ccc23)cn1 (single isomer, unassigned) [25, S-1]",> 100,> 100,,,
"C[C@H]1CN(C(=O)c2ccc(C#N)cc2F)CCN1CC(CC#N)n1cc(-c2ncnc3[nH]ccc23)cn1 (single isomer, unassigned) [25, S-2]",< 10,> 100,,,
"N#CCC(CN1CCN(C(=O)c2ccc(C#N)cc2F)CC1CO)n1cc(-c2ncnc3[nH]ccc23)cn1 (single isomer, unassigned) [156—peak 1, 4-{[4-{3-cyano-2-[4-(7H-pyrrolo[2,3-d]pyrimidin-4-yl)-1H-pyrazol-1-yl]propyl}-3-(hydroxymethyl)piperazin-1-yl]carbonyl}-3-fluorobenzonitrile trifluoroacetate Salt]",,,< 20,> 100,
"N#CCC(CN1CCN(C(=O)c2ccc(C#N)cc2F)CC1CO)n1cc(-c2ncnc3[nH]ccc23)cn1 (single isomer, unassigned) [156—peak 2, 4-{[4-{3-cyano-2-[4-(7H-pyrrolo[2,3-d]pyrimidin-4-yl)-1H-pyrazol-1-yl]propyl}-3-(hydroxymethyl)piperazin-1-yl]carbonyl}-3-fluorobenzonitrile trifluoroacetate Salt]",,,> 100,> 100,
"N#CCC(CN1CCN(C(=O)c2ccc(C#N)cc2F)CC1CO)n1cc(-c2ncnc3[nH]ccc23)cn1 (single isomer, unassigned) [156—peak 3, 4-{[4-{3-cyano-2-[4-(7H-pyrrolo[2,3-d]pyrimidin-4-yl)-1H-pyrazol-1-yl]propyl}-3-(hydroxymethyl)piperazin-1-yl]carbonyl}-3-fluorobenzonitrile trifluoroacetate Salt]",,,50 to 100,> 100,
"N#CCC(CN1CCN(C(=O)c2ccc(C#N)cc2F)CC1CO)n1cc(-c2ncnc3[nH]ccc23)cn1 (single isomer, unassigned) [156—peak 4, 4-{[4-{3-cyano-2-[4-(7H-pyrrolo[2,3-d]pyrimidin-4-yl)-1H-pyrazol-1-yl]propyl}-3-(hydroxymethyl)piperazin-1-yl]carbonyl}-3-fluorobenzonitrile trifluoroacetate Salt]",,,> 100,> 100,
"N#CCC(CN1CCN(C(=O)c2ccc(C#N)cc2F)CC1)n1cc(-c2ncnc3[nH]ccc23)cn1 (single isomer, unassigned) [Example 12, 4-[(4-{3-cyano-2-[4-(7H-pyrrolo[2,3-d]pyrimidin-4-yl)-1H-pyrazol-1-yl]propyl}piperazin-1-yl)carbonyl]-3-fluorobenzonitrile trifluoroacetate Salt]",< 10,50 to 100,,,
"N#CCC(CN1CCN(C(=O)c2ccc(C#N)cc2F)CC1)n1ccc(-c2ncnc3[nH]ccc23)c1 (single isomer, unassigned) [Example 13, 4-[(4-{3-cyano-2-[3-(7H-pyrrolo[2,3-d]pyrimidin-4-yl)-1H-pyrrol-1-yl]propyl}piperazin-1-yl)carbonyl]-3-fluorobenzonitrile trifluoroacetate Salt]",< 10,50 to 100,,,
"COCC1CN(C(=O)c2ccc(C#N)cc2F)CCN1CC(CC#N)n1cc(-c2ncnc3[nH]ccc23)cn1 (single isomer, unassigned) [Example 157—peak 1, 4-{[4-{3-cyano-2-[4-(7H-pyrrolo[2,3-d]pyrimidin-4-yl)-1H-pyrazol-1-yl]propyl}-3-(methoxymethyl)piperazin-1-yl]carbonyl}-3-fluorobenzonitrile]",,,> 100,> 100,
"COCC1CN(C(=O)c2ccc(C#N)cc2F)CCN1CC(CC#N)n1cc(-c2ncnc3[nH]ccc23)cn1 (single isomer, unassigned) [Example 157—peak 2, 4-{[4-{3-cyano-2-[4-(7H-pyrrolo[2,3-d]pyrimidin-4-yl)-1H-pyrazol-1-yl]propyl}-3-(methoxymethyl)piperazin-1-yl]carbonyl}-3-fluorobenzonitrile]",,,< 20,> 100,

# Continued, in another order:
"IC50 [1, 3] [nM]","IC50 [2, 4] [nM]","IC50 [1, 5] [nM]","IC50 [2, 6] [nM]",Molecule,also measured
,,20 to 50,> 100,"N#CCC(CN1CCN(C(=O)c2ccc(C#N)cc2F)C(CO)C1)n1cc(-c2ncnc3[nH]ccc23)cn1 (mixture of isomers) [Example 160, 4-{[4-{3-cyano-2-[4-(7H-pyrrolo[2,3-d]pyrimidin-4-yl)-1H-pyrazol-1-yl]propyl}-2-(hydroxymethyl)piperazin-1-yl]carbonyl}-3-fluorobenzonitrile]",
,,50 to 100,> 100,"C[C@@H]1CN(CC(CC#N)n2cc(-c3ncnc4[nH]ccc34)cn2)CCN1C(=O)c1ccc(C#N)cc1F (mixture of isomers) [Example 161, 4-[((2R)-4-{3-cyano-2-[4-(7H-pyrrolo[2,3-d]pyrimidin-4-yl)-1H-pyrazol-1-yl]propyl}-2-methylpiperazin-1-yl)carbonyl]-3-fluorobenzonitrile]",
,,20 to 50,> 100,"C[C@H]1CN(CC(CC#N)n2cc(-c3ncnc4[nH]ccc34)cn2)CCN1C(=O)c1ccc(C#N)cc1F (mixture of isomers) [Example 162, 4-[((2S)-4-{3-cyano-2-[4-(7H-pyrrolo[2,3-d]pyrimidin-4-yl)-1H-pyrazol-1-yl]propyl}-2-methylpiperazin-1-yl)carbonyl]-3-fluorobenzonitrile]",
,,> 100,> 100,"COCC1CN(C(=O)c2ccc(C#N)cc2F)CCN1CC(CC#N)n1cc(-c2ncnc3[nH]ccc23)cn1 (single isomer, unassigned) [Example 157—peak 3, 4-{[4-{3-cyano-2-[4-(7H-pyrrolo[2,3-d]pyrimidin-4-yl)-1H-pyrazol-1-yl]propyl}-3-(methoxymethyl)piperazin-1-yl]carbonyl}-3-fluorobenzonitrile]",
,,< 20,> 100,"N#CCC(CN1CCN(C(=O)c2ccc(C#N)cc2F)CC1CF)n1cc(-c2ncnc3[nH]ccc23)cn1 (single isomer, unassigned) [Example 158, 4-[(4-{3-cyano-2-[4-(7H-pyrrolo[2,3-d]pyrimidin-4-yl)-1H-pyrazol-1-yl]propyl}-3-fluoromethylpiperazin-1-yl)carbonyl]-3-fluorobenzonitrile]",
,,> 100,> 100,"N#CCC(CN1CCN(C(=O)c2ccc(C#N)cc2F)CC1C(F)F)n1cc(-c2ncnc3[nH]ccc23)cn1 (single isomer, unassigned) [Example 159—peak 1, 4-{[4-{3-cyano-2-[4-(7H-pyrrolo[2,3-d]pyrimidin-4-yl)-1H-pyrazol-1-yl]propyl}-3-(difluoromethyl)piperazin-1-yl]carbonyl}-3-fluorobenzonitrile]",
,,50 to 100,50 to 100,"N#CCC(CN1CCN(C(=O)c2ccc(C#N)cc2F)CC1C(F)F)n1cc(-c2ncnc3[nH]ccc23)cn1 (single isomer, unassigned) [Example 159—peak 2, 4-{[4-{3-cyano-2-[4-(7H-pyrrolo[2,3-d]pyrimidin-4-yl)-1H-pyrazol-1-yl]propyl}-3-(difluoromethyl)piperazin-1-yl]carbonyl}-3-fluorobenzonitrile]",
,,< 20,20 to 50,"N#CCC(CN1CCN(C(=O)c2ccc(C#N)cc2F)CC1C(F)F)n1cc(-c2ncnc3[nH]ccc23)cn1 (single isomer, unassigned) [Example 159—peak 3, 4-{[4-{3-cyano-2-[4-(7H-pyrrolo[2,3-d]pyrimidin-4-yl)-1H-pyrazol-1-yl]propyl}-3-(difluoromethyl)piperazin-1-yl]carbonyl}-3-fluorobenzonitrile]",
